Where two headings read alike, the source gives them in different places. One block for each molecule: values may come before it. Square brackets hold non-standard residues; d marks the D form. Peptide text beside a SMILES is read from it. * marks the point of attachment. dPhe(4-NO2) = N[C@H](Cc1ccc([N+](=O)[O-])cc1)C(=O)O; Trp(5-OH) = N[C@@H](Cc1c[nH]c2ccc(O)cc12)C(=O)O; dPhe(4-Cl) = N[C@H](Cc1ccc(Cl)cc1)C(=O)O; Nicotinoyl = O=C(c1cccnc1)*; PhAc = O=C(Cc1ccccc1)*; Bz = O=C(c1ccccc1)*
How the values were obtained:
human neutrophils [1] = experiment: cells; type: cell-based; conditions: for IC50: mean ± SEM
Protocol: Degranulation of azurophilic granules was determined by elastase release as described above. Experiments were performed using MeO-Suc-[…]-nitroanilide as the elastase substrate. […] Results are expressed as the percentage of elastase release in the drug-free control group, DMSO. Tables 5 and 6 explore whether there is an anti-inflamatory effect in the dipeptide derivatives. Because ferricytochrome c cannot penetrate cell membranes, it reacts with superoxide anion extracellularly. Also, there are absorptive reactions at 550 nm, and differences among the absorptive reactions can be used to evaluate the influence on the release of superoxide anion. The elastase is released by degranulation as the neutrophil is activated. Tables 5 and 6 use the substrate, MeO-Suc-[…]-nitroanilide, with the specificity for reacting with the elastase so as to evaluate the influence of the candidate compound on the elastase release. Blood was taken from healthy human donors (20-32 years old) by venipuncture, following a protocol approved by the Institutional Review Board at Chang Gung Memorial Hospital. Neutrophils were isolated by a standard method of dextran sedimentation prior to centrifugation in a Ficoll Hypaque gradient and the hypotonic lysis of erythrocytes. […] The degranulation of azurophilic granules was determined by elastase release as described above. Experiments were performed using MeO-Suc-[…]-nitroanilide as the elastase substrate. Briefly, after supplementation with MeO-Suc-[…]-nitroanilide ([…] neutrophils (6×10^5 ml^-1) were equilibrated at 37° C. for 2 min and incubated with drugs for 5 min. […] The results are expressed as the percentage of elastase release in the drug-free control group.

human neutrophils [2] = experiment: cells; type: cell-based; conditions: for IC50: mean ± SEM; remark: listed apart in the source
Description: Tables 5 and 6 explore whether there is an anti-inflamatory effect in the dipeptide derivatives. Because ferricytochrome c cannot penetrate cell membranes, it reacts with superoxide anion extracellularly. Also, there are absorptive reactions at 550 nm, and differences among the absorptive reactions can be used to evaluate the influence on the release of superoxide anion. The elastase is released by degranulation as the neutrophil is activated. Tables 5 and 6 use the substrate, MeO-Suc-Ala-Ala-Pro-Val-p-nitroanilide, with the specificity for reacting with the elastase so as to evaluate the influence of the candidate compound on the elastase release.
Blood was taken from healthy human donors (20-32 years old) by venipuncture, following a protocol approved by the Institutional Review Board at Chang Gung Memorial Hospital. Neutrophils were isolated by a standard method of dextran sedimentation prior to centrifugation in a Ficoll Hypaque gradient and the hypotonic lysis of erythrocytes.
The evaluation of O2.^− generation was based on the SOD-inhibitable reduction of ferricytochrome c. In brief, after supplementation with 0.5 mg ml^−1 ferricytochrome c and 1 mM Ca^2+, neutrophils were equilibrated at 37° C. for 2 min and incubated with drugs […].

[3] = Neutrophil, fMLP/CB, n = 3, Table 1, read-out: Anti-inflammation NE release (IC50)
[4] = Neutrophil, human neutrophils, fMLP/CB, n = 3, Table 1, read-out: Anti-inflammation O2•− generation (IC50)
[5] = fMLP/CB, n = 3, Table 1, read-out: Anti-inflammation NE release (IC50)
[6] = human neutrophils, fMLP/CB, n = 3, Table 1, read-out: Anti-inflammation O2•− generation (IC50)
[7] = fMLP/CB, n = 3, Table 2, read-out: Anti-inflammation NE release (IC50)
[8] = human neutrophils, fMLP/CB, n = 3, Table 2, read-out: Anti-inflammation O2•− generation (IC50)
[9] = fMLP/CB, n = 3, Table 3, read-out: Anti-inflammation NE release (IC50)
[10] = human neutrophils, fMLP/CB, n = 3, Table 3, read-out: Anti-inflammation O2•− generation (IC50)

melting point: 191 to 193 °C
IC50 (human neutrophils [1]; [3]): > 30 µM
IC50 (human neutrophils [2]; [4]): > 30 µM
Structure (SMILES): COC(=O)[C@@H](Cc1ccccc1)NC(=O)[C@H](Cc1c[nH]c2ccccc12)NC(=O)c1ccc(F)cc1 [Compound 4, N—(N-4-Fluorobenzoyl-L-tryptophanyl)-D-phenylalanine methyl ester]

melting point: 191 to 193 °C
IC50 (human neutrophils [1]; [3]): 10.4 ± 4.61 µM
IC50 (human neutrophils [2]; [4]): > 30 µM
Structure (SMILES): COC(=O)[C@@H](Cc1ccccc1)NC(=O)[C@H](Cc1c[nH]c2ccccc12)NC(=O)c1ccc(Cl)cc1 [Compound 5, N—(N-4-Chlorobenzoyl-L-tryptophanyl)-D-phenylalanine methyl ester]

melting point: 169 to 171 °C
IC50 (human neutrophils [1]; Neutrophil, WKYMVm, n = 4 or 8, Table 6, read-out: Elastase release WKYMVm IC50): 1.96 ± 0.11 µM
IC50 (human neutrophils [1]; Neutrophil, WKYMVm/CB, n = 3, Table 4, read-out: WKYMVm/CB NE release (IC50)): 1.96 ± 0.11 µM
IC50 (human neutrophils [1]; Neutrophil, fMLF, n = 4 or 8, Table 6, read-out: Elastase release fMLF IC50): 2.47 ± 0.25 µM
IC50 (human neutrophils [1]; Neutrophil, fMLF/CB, n = 3, Table 4, read-out: fMLF/CB NE release (IC50)): 2.47 ± 0.25 µM
IC50 (human neutrophils [1]; [3]): 2.47 ± 0.25 µM
IC50 (human neutrophils [2]; Neutrophil, WKYMVm, n = 4 or 8, Table 5, read-out: Superoxide anion WKYMVm IC50): 6.55 ± 0.59 µM
IC50 (human neutrophils [2]; Neutrophil, WKYMVm/CB, n = 3, Table 4, read-out: WKYMVm/CB O2•− generation (IC50)): 6.55 ± 0.59 µM
IC50 (human neutrophils [2]; Neutrophil, human neutrophils, fMLF/CB, n = 3, Table 4, read-out: fMLF/CB O2•− generation (IC50)): 1.88 ± 0.29 µM
IC50 (human neutrophils [2]; Neutrophil, human neutrophils, fMLF, n = 4 or 8, Table 5, read-out: Superoxide anion fMLF IC50): 1.88 ± 0.29 µM
IC50 (human neutrophils [2]; [4]): 1.88 ± 0.29 µM
Structure (SMILES): COC(=O)[C@@H](Cc1ccccc1)NC(=O)[C@H](Cc1c[nH]c2ccccc12)NC(=O)c1ccc(C)cc1 [Compound 6, N—(N-4-Methylbenzoyl-L-tryptophanyl)-D-phenylalanine methyl ester]

melting point: 151 to 153 °C
IC50 (human neutrophils [1]; [3]): > 30 µM
IC50 (human neutrophils [2]; [4]): > 30 µM
Structure (SMILES): COC(=O)[C@@H](Cc1ccccc1)NC(=O)[C@H](Cc1c[nH]c2ccccc12)NC(=O)c1ccc(OC)cc1 [Compound 7, N—(N-4-Methoxylbenzoyl-L-tryptophanyl)-D-phenylalanine methyl ester]

melting point: 182 to 184 °C
IC50 (human neutrophils [1]; [3]): 5.71 ± 0.39 µM
IC50 (human neutrophils [2]; [4]): 10.2 ± 4.53 µM
Structure (SMILES): COC(=O)[C@@H](Cc1ccccc1)NC(=O)[C@H](Cc1c[nH]c2ccccc12)NC(=O)Cc1ccccc1 [Compound 8, N—(N-Phenylacetyl-L-tryptophanyl)-D-phenylalanine methyl ester] (PhAc-Trp-[dF]-OMe)

Structure (SMILES): COC(=O)[C@@H](Cc1ccccc1)NC(=O)[C@H](Cc1c[nH]c2ccc(O)cc12)NC(=O)c1ccccc1 [Compound 11a, N—(N-Benzoyl-5-hydroxy-L-tryptophanyl)-D-phenylalanine methyl esters] (Bz-[Trp(5-OH)]-[dF]-OMe)
IC50 (human neutrophils [1]; [5]): 9.11 ± 0.76 µM
IC50 (human neutrophils [2]; [6]): 8.81 ± 1.22 µM

Structure (SMILES): COC(=O)[C@@H](Cc1ccccc1)NC(=O)[C@H](Cc1c[nH]c2ccc(O)cc12)NC(=O)c1ccccc1 [Compound 11b, N—(N-Benzoyl-5-hydroxy-L-tryptophanyl)-D-phenylalanine methyl esters] (Bz-[Trp(5-OH)]-[dF]-OMe)
IC50 (human neutrophils [1]; [5]): 22.1 ± 4.96 µM
IC50 (human neutrophils [2]; [6]): 18.7 ± 4.02 µM

IC50 (human neutrophils [1]; Neutrophil, fMLP/CB, n = 3, Table 3, read-out: Anti-inflammation NE release (IC50)): > 30 µM
IC50 (human neutrophils [2]; Neutrophil, human neutrophils, fMLP/CB, n = 3, Table 3, read-out: Anti-inflammation O2•− generation (IC50)): > 30 µM
Structure (SMILES): O=C(N[C@@H](Cc1c[nH]c2ccccc12)C(=O)N[C@@H](CO)Cc1cccc(O)c1)c1ccccc1 [Compound 12a, N—(N-Benzoyl-L-tryptophanyl)-5-hydroxy-D-phenylalaninol]

Structure (SMILES): COC(=O)[C@@H](Cc1ccccc1)NC(=O)[C@H](Cc1c[nH]c2ccccc12)NC(=O)c1cccnc1 [Compound 15a, N—(N-nicotinoyl-L-tryptophanyl)-D-phenylalanine methyl esters] (Nicotinoyl-Trp-[dF]-OMe)
IC50 (human neutrophils [1]; [5]): > 30 µM
IC50 (human neutrophils [2]; [6]): 13.1 ± 0.5 µM

Structure (SMILES): COC(=O)[C@@H](Cc1ccccc1)NC(=O)[C@H](Cc1c[nH]c2ccccc12)NC(=O)c1cccnc1 [Compound 15b, N—(N-nicotinoyl-L-tryptophanyl)-D-phenylalanine methyl esters] (Nicotinoyl-Trp-[dF]-OMe)
IC50 (human neutrophils [1]; [5]): > 30 µM
IC50 (human neutrophils [2]; [6]): > 30 µM

Structure (SMILES): COC(=O)[C@@H](Cc1ccc([N+](=O)[O-])cc1)NC(=O)[C@H](Cc1c[nH]c2ccccc12)NC(=O)c1ccccc1 [Compound 18a, N—(N-Benzoyl-L-tryptophanyl)-para-nitro-D-phenylalanine methyl esters] (Bz-Trp-[dPhe(4-NO2)]-OMe)
IC50 (human neutrophils [1]; [7]): 11.2 ± 0.46 µM
IC50 (human neutrophils [2]; [8]): 19 ± 2.7 µM

Structure (SMILES): COC(=O)[C@@H](Cc1ccc([N+](=O)[O-])cc1)NC(=O)[C@H](Cc1c[nH]c2ccccc12)NC(=O)c1ccccc1 [Compound 18b, N—(N-Benzoyl-L-tryptophanyl)-para-nitro-D-phenylalanine methyl esters] (Bz-Trp-[dPhe(4-NO2)]-OMe)
IC50 (human neutrophils [1]; [7]): 15.4 ± 0.54 µM
IC50 (human neutrophils [2]; [8]): 13.1 ± 0.4 µM

Structure (SMILES): COC(=O)[C@@H](Cc1ccc(Cl)cc1)NC(=O)[C@H](Cc1c[nH]c2ccccc12)NC(=O)c1ccccc1 [Compound 21a, N—(N-Benzoyl-L-tryptophanyl)-para-chloro-D-phenylalanine methyl esters] (Bz-Trp-[dPhe(4-Cl)]-OMe)
IC50 (human neutrophils [1]; [7]): 4.31 ± 0.52 µM
IC50 (human neutrophils [2]; [8]): 4.41 ± 0.27 µM

Structure (SMILES): COC(=O)[C@@H](Cc1ccc(Cl)cc1)NC(=O)[C@H](Cc1c[nH]c2ccccc12)NC(=O)c1ccccc1 [Compound 21b, N—(N-Benzoyl-L-tryptophanyl)-para-chloro-D-phenylalanine methyl esters] (Bz-Trp-[dPhe(4-Cl)]-OMe)
IC50 (human neutrophils [1]; [7]): 12.4 ± 3.53 µM
IC50 (human neutrophils [2]; [8]): 5.26 ± 0.84 µM

Structure (SMILES): N#CCNC(=O)[C@@H](Cc1ccccc1)NC(=O)[C@H](Cc1c[nH]c2ccccc12)NC(=O)c1ccccc1 [Compound 27a, N—(N-benzoyl-L-tryptophanyl)-D-phenylalanine-glycine-nitriles]
Elastase release WKYMVm Inh % (human neutrophils [1]; WKYMVm, inhibitory percentage under 10 μM, Table 6): 35.9 ± 0.8 %
Elastase release fMLF Inh % (human neutrophils [1]; fMLF, inhibitory percentage under 10 μM, Table 6, listed as HCH 90-2-2): 28.79 ± 2.6 %
IC50 (human neutrophils [1]; [9]): 4.69 ± 0.8 µM
Superoxide anion WKYMVm Inh % (human neutrophils [2]; WKYMVm, inhibitory percentage under 10 μM, Table 5, listed as HCH 90-2-2): 28.79 ± 2.6 %
IC50 (human neutrophils [2]; human neutrophils, fMLF, n = 4 or 8, Table 5, read-out: Superoxide anion fMLF IC50): 6.23 ± 1.05 µM
IC50 (human neutrophils [2]; [10]): 4.23 ± 2.44 µM

Structure (SMILES): N#CCNC(=O)[C@@H](Cc1ccccc1)NC(=O)[C@H](Cc1c[nH]c2ccccc12)NC(=O)c1ccccc1 [Compound 27b, N—(N-benzoyl-L-tryptophanyl)-D-phenylalanine-glycine-nitriles]
IC50 (human neutrophils [1]; WKYMVm, n = 4 or 8, Table 6, read-out: Elastase release WKYMVm IC50): 6.65 ± 0.23 µM
Elastase release fMLF Inh % (human neutrophils [1]; fMLF, inhibitory percentage under 10 μM, Table 6, listed as HCH 90-2-1): 18.66 ± 0.7 %
IC50 (human neutrophils [1]; [9]): 14.5 ± 2.87 µM
Superoxide anion WKYMVm Inh % (human neutrophils [2]; WKYMVm, inhibitory percentage under 10 μM, Table 5, listed as HCH 90-2-1): 18.66 ± 0.7 %
Superoxide anion fMLF Inh % (human neutrophils [2]; human neutrophils, fMLF, inhibitory percentage under 10 μM, Table 5): 34.61 ± 4.1 %
IC50 (human neutrophils [2]; [10]): 10.5 ± 4.23 µM

Structure (SMILES): C/C=C/C[C@@H](C)[C@@H](O)[C@H]1C(=O)N[C@@H](CC)C(=O)N(C)CC(=O)N(C)[C@@H](CC(C)C)C(=O)N[C@@H](C(C)C)C(=O)N(C)[C@@H](CC(C)C)C(=O)N[C@@H](C)C(=O)N[C@H](C)C(=O)N(C)[C@@H](CC(C)C)C(=O)N(C)[C@@H](CC(C)C)C(=O)N(C)[C@H](C(C)C)C(=O)N1C [CycH, Cyclosporin H, reference compound]
IC50 (human neutrophils [1]; WKYMVm/CB, n = 3, Table 4, read-out: WKYMVm/CB NE release (IC50)): 0.17 ± 0.01 µM

IC50 (human neutrophils [1]; [3]): 0.046 ± 0.02 µM
Structure (SMILES): CC(C)(C)C(=O)Oc1ccc(S(=O)(=O)Nc2ccccc2C(=O)NCC(=O)O)cc1 [Sivelestat, reference compound]

— US9593144B2, “FPR1 antagonist derivatives and use thereof” (CHANG GUNG UNIVERSITY, priority 2014, dated 2017)
